pIC50: −log10 of the molar value.
Biological target: T1, Bifunctional epoxide hydrolase 2 (Homo sapiens, UniProt P34913)
T1 sequence (P34913 whole entry): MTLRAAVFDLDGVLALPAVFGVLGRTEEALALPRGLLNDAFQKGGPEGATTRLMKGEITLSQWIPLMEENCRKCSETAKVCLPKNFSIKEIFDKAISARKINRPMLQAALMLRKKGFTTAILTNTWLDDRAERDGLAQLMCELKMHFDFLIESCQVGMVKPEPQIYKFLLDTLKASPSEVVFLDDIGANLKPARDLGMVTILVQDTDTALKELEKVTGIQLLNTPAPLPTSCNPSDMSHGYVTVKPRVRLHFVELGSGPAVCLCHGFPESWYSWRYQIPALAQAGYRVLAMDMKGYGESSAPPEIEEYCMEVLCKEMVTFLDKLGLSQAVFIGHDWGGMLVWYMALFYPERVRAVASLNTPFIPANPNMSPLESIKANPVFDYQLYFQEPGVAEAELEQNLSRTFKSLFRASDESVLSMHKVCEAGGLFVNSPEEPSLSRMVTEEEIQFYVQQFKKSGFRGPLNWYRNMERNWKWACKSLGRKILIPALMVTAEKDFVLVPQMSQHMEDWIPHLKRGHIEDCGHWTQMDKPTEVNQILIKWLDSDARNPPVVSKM
Test: Inhibition of sEH (unknown origin) expressed in baculovirus expression system incubated for 1 hr

pIC50: 6.22
SMILES: C[C@@H](C(=O)O)[C@H]1Cc2c(c(O)c3ccccc3c2O[C@@H]2O[C@H](CO)[C@@H](O)[C@H](O)[C@H]2O)C(=O)O1

Source: ChEMBL document CHEMBL4840331, “Configurational Assignment of a Flexible Benzo[g]isochromene Stereodiad from Rubia philippinensis and Inhibition of Soluble Epoxide Hydrolase Activity” (J Nat Prod, 2021)
